US20230407243A1, “GENETIC PLATFORM TO INVESTIGATE THE FUNCTIONS OF BACTERIAL DRUG EFFLUX PUMPS” (priority 2022, published 2023)

Tests used:
Format in all cases: cell-based, Escherichia coli
[1] = tested on: EKO-35-Pore acrBD408A (functionally inactive AcrB variant); assay: Checkerboard synergy (FICI), porinated strain
Experimental: (§1) Synergy measurement using checkerboard analysis was performed in 96-well microtiter plates using the microdilution broth method, according to CLSI guidelines (Patel J. B., 2015). The cell inocula were prepared using the colony resuspension method. The minimum inhibitory concentrations (MICs) were defined as the lowest concentration that provided no growth, as determined by measurement of the OD600nm using a Synergy H1 microplate reader (BioTek). Susceptibility testing was performed in MHB II with a final volume of 100 μL. PAI3N (Bachem Americas) was solubilized in MHB II. […] Solvent controls were included in each plate.
(§2) The Fractional Inhibitory Concentration Index (FICI) was used to assess the synergy of PAI3N in combination with different antibiotics. The FICI represents the ΣFIC of each drug. The FICI for each drug was calculated using the following formula: FICI=FICA+FICB=(CA/MICA)+(CB/MICB). Where MICA and MICB are the MICs of drugs A (PAI3N/NMP) and B (antibiotic) alone, and CA and CB are the MICs of the drugs in combination. The effects of PAβN or NMP in combination with antibiotics were classified as: synergistic (FICI<0.5), additive (FICI>0.5-1.0), indifferent (FICI>1.0-2.0), and antagonistic (FICI>2.0). Fold increases in resistance provided by efflux pumps were calculated by dividing the MIC values of strains expressing efflux pumps by the MIC value of EKO-35.

[2] = tested on: EKO-35 porinated strain expressing acrB; assay: Checkerboard synergy (FICI), porinated strain; details: for potentiation of the labelled compound by NMP: porinated strain producing AcrB
Experimental: as §1, §2

[3] = tested on: EKO-35-Pore; assay: Checkerboard synergy (FICI), porinated strain; details: for interaction of PAβN in combination with the labelled antibiotic (FICI): porinated efflux-deficient strains
Experimental: as §1, §2

[4] = tested on: EKO-35 araC::emrAB Pore; assay: MIC susceptibility profiling, porinated efflux platform; details: for Fold changes of MICs: EKO-35 araC::emrAB Pore compared to EKO-35-Pore; for MIC: Escherichia coli, EKO-35 araC::emrAB Pore, technical duplicate, read-out: Minimum inhibitory concentration
Procedure, shortened: (§3)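 Strains carry the fhuA ΔC/Δ4L pore integrated between glmS and pstS under a constitutive promoter, with pore activity checked by vancomycin susceptibility. Overnight LB cultures were adjusted in PBS pH 7.4 to OD600 ~1.0 and diluted 1/2000 into MHB II. 2-fold compound titrations were read by OD600 after 18 h at 37 °C.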

[5] = tested on: EKO-35 araC::macAB Pore; assay: as above; details: for Fold changes of MICs: EKO-35 araC::macAB Pore compared to EKO-35-Pore; for MIC: Escherichia coli, EKO-35 araC::macAB Pore, technical duplicate, read-out: Minimum inhibitory concentration
Procedure, shortened: as §3

[6] = tested on: EKO-35 araC::acrD Pore; assay: as above; details: for Fold changes of MICs: EKO-35 araC::acrD Pore compared to EKO-35-Pore; for MIC: Escherichia coli, Table 14A, porinated, technical duplicate, read-out: Minimum inhibitory concentration, EKO-35 araC::acrD Pore
Procedure, shortened: as §3

[7] = tested on: EKO-35 araC::emrKY Pore; assay: as above; details: for Fold changes of MICs: EKO-35 araC::emrKY Pore compared to EKO-35-Pore; for MIC: Escherichia coli, EKO-35 araC::emrKY Pore, technical duplicate, read-out: Minimum inhibitory concentration
Procedure, shortened: as §3

[8] = tested on: EKO-35 araC::acrBD408A Pore; assay: as above; details: for Fold changes of MICs: EKO-35 araC::acrBD408A Pore compared to EKO-35-Pore; for MIC: Escherichia coli, EKO-35 araC::acrBD408A Pore, technical duplicate, read-out: Minimum inhibitory concentration
Procedure, shortened: as §3

[9] = tested on: EKO-35 araC::acrEF Pore; assay: as above; details: for Fold changes of MICs: EKO-35 araC::acrEF Pore compared to EKO-35-Pore; for MIC: Escherichia coli, Table 14A, porinated, technical duplicate, read-out: Minimum inhibitory concentration, EKO-35 araC::acrEF Pore
Procedure, shortened: as §3

[10] = tested on: EKO-35 araC::mexCD Pore; assay: as above; details: for Fold changes of MICs: EKO-35 araC::mexCD Pore compared to EKO-35-Pore; for MIC: Escherichia coli, EKO-35 araC::mexCD Pore, technical duplicate, read-out: Minimum inhibitory concentration
Procedure, shortened: as §3

[11] = EKO-35 acrBD408A Pore, NMP + antibiotic
[12] = EKO-35 acrBD408A Pore, PAβN + antibiotic
[13] = EKO-35 acrBD408A Pore, antibiotic alone (PAβN checkerboard)
[14] = EKO-35 acrBD408A Pore, antibiotic in combination with PAβN
[15] = strain EKO-35 acrBD408A Pore, NMP + antibiotic
[16] = strain EKO-35 acrBD408A Pore, antibiotic alone
[17] = strain EKO-35 acrBD408A Pore, antibiotic in combination with NMP
[18] = EKO-35 acrB Pore, NMP + antibiotic
[19] = EKO-35 acrB Pore, PAβN + antibiotic
[20] = EKO-35 acrB Pore, antibiotic alone (PAβN checkerboard)
[21] = EKO-35 acrB Pore, antibiotic in combination with PAβN
[22] = strain EKO-35 acrB Pore, NMP + antibiotic
[23] = strain EKO-35 acrB Pore, antibiotic alone
[24] = EKO-35 Pore, antibiotic alone (PAβN checkerboard)
[25] = EKO-35 Pore, antibiotic in combination with PAβN
[26] = strain EKO-35 Pore, NMP + antibiotic
[27] = strain EKO-35 Pore, antibiotic alone
[28] = strain EKO-35 Pore, antibiotic in combination with NMP
[29] = strain EKO-35 acrB Pore, antibiotic in combination with NMP

Structure (SMILES): CC(=O)O[C@H]1C[C@@]2(C)[C@@H](C[C@@H](O)[C@H]3[C@@]4(C)CC[C@@H](O)[C@@H](C)[C@@H]4CC[C@@]32C)/C1=C(\CCC=C(C)C)C(=O)O [fusidic acid]
- Effect [1, 11]: Additive
- FICI [1, 11]: 0.750
- Effect [1, 12]: Synergistic
- FICI [1, 12]: 0.255
- MICb Alone [1, 13]: 1 µg/mL
- MICb Combined [1, 14]: 0.13 µg/mL
- Effect [1, 15]: Additive (additive (FICI >0.5-1.0))
- FICI [1, 15]: 0.750
- MICb Alone [1, 16]: 0.5 µg/mL
- MICb Combined [1, 17]: 0.25 µg/mL
- Effect [2, 18]: Synergistic
- FICI [2, 18]: 0.500
- Effect [2, 19]: Synergistic
- FICI [2, 19]: 0.129
- MICb Alone [2, 20]: 512 µg/mL
- MICb Combined [2, 21]: 2 µg/mL
- potentiation of the labelled compound by NMP [2]: enhancing the activity
- Effect [2, 22]: Synergistic (Synergy (FICI ≤0.5))
- FICI [2, 22]: 0.500
- MICb Alone [2, 23]: 512 µg/mL
- Effect ([3]; EKO-35 Pore, NMP + antibiotic): Additive
- FICI ([3]; EKO-35 Pore, NMP + antibiotic): 0.620
- Effect ([3]; EKO-35 Pore, PAβN + antibiotic): Synergistic
- FICI ([3]; EKO-35 Pore, PAβN + antibiotic): 0.310
- MICb Alone [3, 24]: 1 µg/mL
- MICb Combined [3, 25]: 0.06 µg/mL
- interaction of PAβN in combination with the labelled antibiotic (FICI) [3]: synergy was maintained
- Effect [3, 26]: Additive (additive (FICI >0.5-1.0))
- FICI [3, 26]: 0.620
- MICb Alone [3, 27]: 0.5 µg/mL
- MICb Combined [3, 28]: 0.06 µg/mL
- Fold changes of MICs [4]: 4 fold
- efflux pump-mediated resistance vs EKO-35-Pore ([4]; EmrAB, porinated strain): associated with resistance
- MIC [4]: 1.56 µg/mL
- Fold changes of MICs [5]: 1 fold
- MIC [5]: 0.391 µg/mL
- Fold changes of MICs [6]: 32 fold
- MIC [6]: 12.5 µg/mL
- Fold changes of MICs [7]: 1 fold
- MIC [7]: 0.391 µg/mL
- Fold changes of MICs [8]: 1 fold
- MIC [8]: 0.391 µg/mL
- Fold changes of MICs [9]: 32 fold
- MIC [9]: 12.5 µg/mL
- Fold changes of MICs [10]: 4 fold
- MIC [10]: 1.56 µg/mL

Structure (SMILES): CC(=O)NC[C@H]1CN(c2ccc(N3CCOCC3)c(F)c2)C(=O)O1 [linezolid]
- FICI [1, 11]: 2.000
- FICI [1, 12]: 1.000
- MICb Alone [1, 13]: 8 µg/mL
- MICb Combined [1, 14]: 4 µg/mL
- Effect [1, 15]: — (indifferent (FICI >1.0))
- FICI [1, 15]: 2.000
- MICb Alone [1, 16]: 8 µg/mL
- MICb Combined [1, 17]: 8 µg/mL
- Effect [2, 18]: Synergistic
- FICI [2, 18]: 0.250
- Effect [2, 19]: Synergistic
- MICb Alone [2, 20]: 128 µg/mL
- MICb Combined [2, 21]: 8 µg/mL
- potentiation of the labelled compound by NMP [2]: enhancing the activity
- Effect [2, 22]: Synergistic (Synergy (FICI ≤0.5))
- FICI [2, 22]: 0.250
- MICb Alone [2, 23]: 128 µg/mL
- MICb Combined [2, 29]: 16 µg/mL
- FICI ([3]; EKO-35 Pore, NMP + antibiotic): 2.000
- FICI ([3]; EKO-35 Pore, PAβN + antibiotic): 1.000
- MICb Alone [3, 24]: 8 µg/mL
- MICb Combined [3, 25]: 4 µg/mL
- Effect [3, 26]: — (indifferent (FICI >1.0))
- FICI [3, 26]: 2.000
- MICb Alone [3, 27]: 8 µg/mL
- MICb Combined [3, 28]: 8 µg/mL
- Fold changes of MICs [4]: 2 fold
- MIC [4]: 7.81 µg/mL
- Fold changes of MICs [5]: 1 fold
- MIC [5]: 3.91 µg/mL
- Fold changes of MICs [6]: 2 fold
- MIC [6]: 7.81 µg/mL
- Fold changes of MICs [7]: 1 fold
- MIC [7]: 3.91 µg/mL
- Fold changes of MICs [8]: 1 fold
- MIC [8]: 3.91 µg/mL
- Fold changes of MICs [9]: 2 fold
- MIC [9]: 7.81 µg/mL
- Fold changes of MICs [10]: 2 fold
- MIC [10]: 7.81 µg/mL

Structure (SMILES): CO[C@@H]1[C@@H](OC(N)=O)[C@@H](O)[C@H](Oc2ccc3c(O)c(NC(=O)c4ccc(O)c(CC=C(C)C)c4)c(=O)oc3c2C)OC1(C)C [novobiocin]
- Effect [1, 12]: Additive
- FICI [1, 12]: 0.750
- MICb Alone [1, 13]: 1 µg/mL
- MICb Combined [1, 14]: 0.25 µg/mL
- Effect [2, 19]: Synergistic
- FICI [2, 19]: 0.094
- MICb Alone [2, 20]: 512 µg/mL
- MICb Combined [2, 21]: 16 µg/mL
- Effect ([3]; EKO-35 Pore, PAβN + antibiotic): Additive
- FICI ([3]; EKO-35 Pore, PAβN + antibiotic): 0.630
- MICb Alone [3, 24]: 1 µg/mL
- MICb Combined [3, 25]: 0.13 µg/mL
- interaction of PAβN in combination with the labelled antibiotic (FICI) [3]: no longer synergistic
- Fold changes of MICs [4]: 8 fold
- MIC [4]: 6.25 µg/mL
- Fold changes of MICs [5]: 1 fold
- MIC [5]: 0.781 µg/mL
- Fold changes of MICs [6]: 32 fold
- MIC [6]: 25 µg/mL
- Fold changes of MICs [7]: 1 fold
- MIC [7]: 0.781 µg/mL
- Fold changes of MICs [8]: 1 fold
- MIC [8]: 0.391 µg/mL
- Fold changes of MICs [9]: 32 fold
- MIC [9]: 25 µg/mL
- Fold changes of MICs [10]: 4 fold
- MIC [10]: 3.12 µg/mL

Structure (SMILES): Cc1onc(-c2ccccc2)c1C(=O)N[C@@H]1C(=O)N2[C@@H]1SC(C)(C)[C@@H]2C(=O)O [oxacillin]
- FICI [1, 11]: 2.000
- FICI [1, 12]: 1.020
- MICb Alone [1, 13]: 0.25 µg/mL
- MICb Combined [1, 14]: 0.13 µg/mL
- Effect [1, 15]: — (indifferent (FICI >1.0))
- FICI [1, 15]: 2.000
- MICb Alone [1, 16]: 0.13 µg/mL
- MICb Combined [1, 17]: 0.13 µg/mL
- Effect [2, 18]: Synergistic
- FICI [2, 18]: 0.500
- Effect [2, 19]: Synergistic
- MICb Combined [2, 21]: 16 µg/mL
- potentiation of the labelled compound by NMP [2]: enhancing the activity
- Effect [2, 22]: Synergistic (Synergy (FICI ≤0.5))
- FICI [2, 22]: 0.500
- MICb Alone [2, 23]: 64 µg/mL
- MICb Combined [2, 29]: 16 µg/mL
- Effect ([3]; EKO-35 Pore, NMP + antibiotic): Additive
- FICI ([3]; EKO-35 Pore, NMP + antibiotic): 0.750
- FICI ([3]; EKO-35 Pore, PAβN + antibiotic): 1.020
- MICb Alone [3, 24]: 0.25 µg/mL
- MICb Combined [3, 25]: 0.13 µg/mL
- interaction of PAβN in combination with the labelled antibiotic (FICI) [3]: no longer synergistic
- Effect [3, 26]: Additive (additive (FICI >0.5-1.0))
- FICI [3, 26]: 0.750
- MICb Alone [3, 27]: 0.5 µg/mL
- MICb Combined [3, 28]: 0.25 µg/mL
- MIC [4]: 0.313 µg/mL
- MIC [5]: 0.313 µg/mL
- MIC [6]: 20 µg/mL
- MIC [7]: 0.313 µg/mL
- MIC [8]: 0.156 µg/mL
- MIC [9]: 5 µg/mL
- MIC [10]: 2.5 µg/mL
